Results on 11 compounds are retold here after PMC7126098 (Bioorganic & Medicinal Chemistry, 2019).

By EC50 is commonly meant the concentration that produces a half-maximal response. As usually defined, the IC50 is the point on the concentration scale where inhibition reaches its midpoint.

Data set [1] relates to herpes simplex virus-2 (G strain). As to the kind of experiment: Inhibition of virus-induced cytopathicity, HSV-2. Format: cell-based. The conditions noted are these: Human alphaherpesvirus 2, HEL, read-out: EC50 HSV-2.
In data set [2] the test system is herpes simplex virus-1 (KOS strain). As to the kind of experiment: Inhibition of virus-induced cytopathicity, HSV-1. Format: cell-based. The following applies: anti-HSV screening in HEL cells.
A short description of data set [3]: Stability towards light and air. Format: physicochemical.
For data set [4], the system named is eight human cancer cell lines. As to the kind of experiment: Cytostatic activity against panel of human cell lines. Format: cell-based. The following applies: for IC50: Homo sapiens, read-out: cytostatic activity (IC50 range over cell lines).
The test system of a further data set is cell culture. The conditions noted are these: at concentrations up to 100 µg/mL; cited from earlier work.
Data set [5] relates to human cytomegalovirus (HCMV) (AD-169 strain and Davis strain). In words: Inhibition of virus-induced cytopathogenicity, HCMV in HEL cells. Format: cell-based. A general note: Cytopathic effects are the visible damage that an infection or toxin causes in cultured cells.
The subject of data set [6] is pancreatic adenocarcinoma Capan-1 cell line. As to the kind of experiment: Cytostatic activity against Capan-1. Format: cell-based, human.
For the next data set, the system named is HSV-1 TK. The following applies: relative to ACV; cited from earlier work.

Turning to `O=c1c2ncn(CCC(CO)CO)c2nc2[nH]c(-c3ccc(F)cc3)cn12` [9b, 6-(4-Fluorophenyl)-3-(4-hydroxy-3-(hydroxymethyl)butyl)-3,5-dihydro-9H-imidazo[1,2-a]purin-9-one], the EC50 in data set [1] lay in the range of 28 to 40.9 µM.
Consider `Cc1ccc(-c2cn3c(=O)c4ncn(CCC(CO)CO)c4nc3[nH]2)cc1` [9d, 3-(4-Hydroxy-3-(hydroxymethyl)butyl)-6-(p-tolyl)-3,5-dihydro-9H-imidazo[1,2-a]purin-9-one], for which, in data set [2], the “antiviral activity (in words)” value is “inactive”.
The same measure, in the same setting: as for `O=c1c2ncn(CCC(CO)CO)c2nc2[nH]c(-c3ccccc3)cn12` [9a, 3-(4-Hydroxy-3-(hydroxymethyl)butyl)-6-phenyl-3,5-dihydro-9H-imidazo[1,2-a]purin-9-one], the entry is “inactive”.
For `O=c1c2ncn(CCCCO)c2nc2[nH]c(-c3cccs3)cn12` [10h, 3-(4-Hydroxybutyl)-6-(thiophen-2-yl)-3,5-dihydro-9H-imidazo[1,2-a]purin-9-one], in data set [3], the “stability towards light and air” value is listed as “stable enough to be collected safely”.
For `O=c1c2ncn(CCC(CO)CO)c2nc2[nH]c(-c3ccc(Cl)cc3)cn12` [9c, 6-(4-Chlorophenyl)-3-(4-hydroxy-3-(hydroxymethyl)butyl)-3,5-dihydro-9H-imidazo[1,2-a]purin-9-one], the “antiviral activity (in words)” value in data set [2] was “inactive”.
`O=c1c2ncn(CCC(CO)CO)c2nc2[nH]c(-c3ccc(C(F)(F)F)cc3)cn12` [9e, 3-(4-Hydroxy-3-(hydroxymethyl)butyl)-6-(4-(trifluoromethyl)phenyl)-3,5-dihydro-9H-imidazo[1,2-a]purin-9-one]: in data set [4], the concentration for half-maximal inhibition (IC50) was in the range of 12.5 to 76.1 µM. Moreover, the EC50 in data set [1] lay within 28 to 40.9 µM.
On to `Nc1nc2c(ncn2CCC(CO)CO)c(=O)[nH]1` [PCV, penciclovir], for which, in the data set on cell culture, the “toxicity in cell culture” value is given as “did not exhibit any toxicity”. The “activity against HCMV (in words)” value in data set [5] is on record as “not inhibitory”. Further, the “inhibition of proliferation of Capan-1 (in words)” value in data set [6] is “slightly inhibited”.
For the compound `O=c1c2ncn(CCC(CO)CO)c2nc2[nH]c(-c3ccc4c(c3)OCO4)cn12` [9i, 6-(Benzo[d][1,3]dioxol-5-yl)-3-(4-hydroxy-3-(hydroxymethyl)butyl)-3,5-dihydro-9H-imidazo[1,2-a]purin-9-one], the concentration giving a half-maximal response (EC50) in data set [1] lay in the range of 28 to 40.9 µM.
Regarding `O=c1c2ncn(CCC(CO)CO)c2nc2[nH]c(-c3ccc(Oc4ccccc4)cc3)cn12` [9j, 3-(4-Hydroxy-3-(hydroxymethyl)butyl)-6-(4-phenoxyphenyl)-3,5-dihydro-9H-imidazo[1,2-a]purin-9-one], the IC50 in data set [4] is 16.9 to 90.4 µM. In addition, the “antiviral activity (in words)” value in data set [2] was “inactive”.
In the case of `O=c1c2ncn(CCCCO)c2nc2[nH]c(-c3ccc(C(F)(F)F)cc3)cn12` [10e, 3-(4-Hydroxybutyl)-6-(4-(trifluoromethyl)phenyl)-3,5-dihydro-9H-imidazo[1,2-a]purin-9-one], the “cytostatic activity (in words)” value in data set [4] (range of cancer cell lines) is recorded as “most effective”.
Take `Nc1nc2c(ncn2CCCCO)c(=O)[nH]1` [HBG, hydroxybutylguanine]: in the data set with HSV-1 TK, the “affinity for HSV-1 TK (in words)” value is on record as “higher affinity for HSV-1 TK than ACV”. The “activity against HCMV (in words)” value in data set [5] is “inactive”. In addition, the “inhibition of proliferation of Capan-1 (in words)” value in data set [6] is reported as “slightly inhibited”.
